# Assay results as given in patent US10688195B2, “Polymyxin B-coated nanoparticles” (Northwestern University, priority 2016, dated 2020).
# Experiments:
# [1] = rats, PB alone; cited from earlier work
# [2] = Serum peak concentration of free PB in mice (literature, ref. 83, and scaling); format: in vivo; conditions: 4 mg/kg, estimated by scaling from the 3 mg/kg dose
# Description: An appropriate starting dose of free PB in mice is estimated by parameter scaling (ref 57; incorporated by reference in its entirety) to attain Cmax exposures that approximate concentrations obtained in human serum. […] Studies are initiated with a PB dose of 4 mg/kg in mice given by tail vein injection every 12 hr. Mice are monitored for 7 days for signs of toxicity (altered respiratory rate, lack of grooming, decreased activity, weight loss). The dose is increased by 1 mg/kg increments until toxicity is observed. Doses that cause more than temporary symptoms are considered the minimal toxic dose, and the next lower dose will be designated the MTD. The MTD of […] is determined in the same manner, starting with the PB molar equivalent MTD of […].
# [3] = mice, 3 mg/kg PB dose; cited from earlier work
# PA = conditions: free PB for PA; cited from earlier work
# PA strain PA99 = assay: Mouse PA abscess model, treatment injected at the site of infection; format: in vivo, Pseudomonas aeruginosa; conditions: mice, data not shown
# Description: FIG. 17. AuNP-PB administration at time of infection with PA prevents abscess formation. Mice were injected subcutaneously (SC) with 2×10^6 CFU of PA strain PA99 in 25 ul of PBS, and were then immediately treated with 50 ul PBS (SC), AuNP-PB (SC, equivalent of 2 ug PB), AuNP (without PB, SC, equivalent amount), or free PB (1 ug IV). SC injections were at the site of the abscess. Abscess areas were measured at 17 hr post-infection. Each symbol represents a distinct mouse. (A) Injections 5 min post-infection; (B) Injections 2 hr post-infection.
# Experiments conducted during development of embodiments herein employed a mouse PA abscess model in which the heterogenous AuNP-PB are injected directly into the site of infection. This assay has the advantage of determining whether AuNP-PB kill bacteria in vivo in the absence of PK concerns.
substance,measurement,setting,value
polymyxin B [PB],Mean half-life,[1],1.5 h
same,Cmax,[2],5300 ng/mL
same,Mean peaks (serum),[3],~4 mg/L
same,MIC,PA,0.5 to 1.0 µg/mL
same,Bacterial loads,PA strain PA99,below the limit of detection
